Results published in article PMC12621569 (Antiviral research, 2025).

Experiments:
[1] = biological target: A (H1N1)pdm09 neuraminidase (NA); type: biochemical, influenza A (H1N1)pdm09 virus
[2] = test system: B/Victoria neuraminidase (NA); type: biochemical, influenza B/Victoria lineage virus
A(H1N1)pdm09 viruses = type: cell-based, influenza A(H1N1)pdm09 virus
A(H3N2) viruses = type: cell-based, influenza A(H3N2) virus
influenza A viruses = type: cell-based, influenza A virus
type A viruses = details: cited from earlier work

SMILES | IC50 Fold [1] [fold] | IC50 fold vs NA sequence-matched virus [2] [fold] | effect of substitution on inhibition of NA activity [2] | effect on baloxavir susceptibility (A(H1N1)pdm09 viruses) | effect on baloxavir susceptibility (A(H3N2) viruses) | change in EC50 (influenza A viruses) | elevated baloxavir EC50 in cell culture (type A viruses) | variably elevated baloxavir EC50 (type A viruses)
CCC(CC)[C@H](NC(C)=O)[C@@H]1[C@H](O)[C@@H](C(=O)O)C[C@H]1N=C(N)N [Peramivir, peramivir] | 301 | 14 | improving the ability |  |  |  |  | 
O=C1c2c(O)c(=O)ccn2N([C@@H]2c3ccccc3SCc3c2ccc(F)c3F)[C@@H]2COCCN12 [Baloxavir, baloxavir] |  |  |  | no effect | no effect | • Natural polymorphism • No or little change in EC50 (<3-fold) | • Primary treatment-emergent; associated with diminished virologic response in clinical settings • Rarely as natural polymorphism • Confers elevated baloxavir EC50 in cell culture (11–614-fold) | • Most are natural polymorphisms • Some emerged post baloxavir exposure or introduced for assessment • Confer variably elevated baloxavir EC50 (<3–19 fold)
CCOC(=O)C1=C[C@@H](OC(CC)CC)[C@H](NC(C)=O)[C@@H](N)C1 [Oseltamivir, oseltamivir] |  |  | improving the ability |  |  |  |  | 
